Results: patent US9150553B2, “Carboxamide compounds and their use as calpain inhibitors” (AbbVie Deutschland GmbH & Co. KG, priority 2007, dated 2015)

How the values were obtained:
Assay type in all cases: biochemical
[1] = molecular target: T1, calpain-I isolated from human erythrocytes (Homo sapiens, UniProt P07384); assay: Calpain I enzyme inhibition, kinetic fluorescence assay; settings: apparent Ki from IC50 by Cheng-Prussoff; pH 7.3, room temperature
T1 construct: calpain-I—isolated from human erythrocytes; purchased Calbiochem 208713; host or cells: human erythrocytes (native tissue isolate)
T1 sequence (P07384 1-714): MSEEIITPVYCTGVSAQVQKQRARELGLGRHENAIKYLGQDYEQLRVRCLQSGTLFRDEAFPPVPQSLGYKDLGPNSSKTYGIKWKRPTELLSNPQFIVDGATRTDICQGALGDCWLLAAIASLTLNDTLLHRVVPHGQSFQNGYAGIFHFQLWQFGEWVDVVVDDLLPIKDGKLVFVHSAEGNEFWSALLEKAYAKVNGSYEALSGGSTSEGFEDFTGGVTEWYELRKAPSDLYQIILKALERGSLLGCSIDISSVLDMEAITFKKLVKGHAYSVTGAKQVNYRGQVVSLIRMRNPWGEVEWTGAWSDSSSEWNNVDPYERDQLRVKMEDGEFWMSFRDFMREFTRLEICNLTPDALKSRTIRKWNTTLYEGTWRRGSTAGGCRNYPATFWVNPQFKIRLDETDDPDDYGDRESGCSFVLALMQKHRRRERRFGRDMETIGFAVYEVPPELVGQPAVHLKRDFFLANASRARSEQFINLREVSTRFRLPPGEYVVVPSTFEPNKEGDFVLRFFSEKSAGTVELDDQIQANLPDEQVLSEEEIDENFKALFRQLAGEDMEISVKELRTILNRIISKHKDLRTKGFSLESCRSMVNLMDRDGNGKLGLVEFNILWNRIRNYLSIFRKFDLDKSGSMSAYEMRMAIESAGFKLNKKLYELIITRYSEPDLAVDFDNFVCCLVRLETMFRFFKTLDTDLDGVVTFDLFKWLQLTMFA
T1 sequence (P04632 1-268 partner): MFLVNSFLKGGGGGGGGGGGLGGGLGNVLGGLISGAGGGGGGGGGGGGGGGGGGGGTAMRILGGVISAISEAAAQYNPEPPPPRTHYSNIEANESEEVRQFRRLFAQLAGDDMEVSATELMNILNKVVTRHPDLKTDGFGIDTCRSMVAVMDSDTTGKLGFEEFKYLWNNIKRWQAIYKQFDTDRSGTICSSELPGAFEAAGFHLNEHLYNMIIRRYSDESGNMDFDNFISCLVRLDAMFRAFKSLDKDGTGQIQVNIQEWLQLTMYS
Procedure: The following solutions and buffers were employed: • HBS (for 40 ml): 800 μl 1M HEPES; 2.16 ml 100 mM KCl; 4.8 ml 1M NaCl; 3.59 ml 5% glucose; 60 μl 1M MgSO4; 400 μl 100 mM Na pyruvate, 28.19 ml water; pH 7.2-7.5. • lysis buffer (for 20 ml): 400 μl 1M Tris pH 8.2; 2.74 ml 1M NaCl; 520 μl 0.5M EDTA; 2 ml 10% triton X-100; 0.8 ml (=1:25) CompletePlus (1 tablet/2 ml H2O); 200 μl 100 mM Pefabloc; 13.34 ml water, pH 8.2. • TBST (10×) (for 1I): 100 mM Tris (12.1 g); 1.5M NaCl (87 g); 1% Tween 20 (10 g), adjusted to pH 8. I. Enzyme Inhibition In Vitro: • Testing for blockade of the corresponding enzymic activities was carried out by means of kinetic fluorescence assays (excitation 390 nm, emission 460 nm). • Apparent Ki values were calculated from the experimentally determined IC50 values by the Cheng-Prussoff relation assuming a reversible competitive enzyme inhibition. The Km values of the substrates used under the assay conditions indicated above were: 90 μM (Z-Phe-Arg-AMC, cathepsin B), 10 μM (Z-Gly-Pro-Arg-AMC, cathepsin K), 2 μM (Z-Phe-Arg-AMC, cathepsin L), and 30 μM (Z-Val-Val-Arg-AMC, cathepsin S). • The indicated Ki values are averages of the inhibition constants calculated on the basis of 2 to 4 independent dose-effect plots. • The following assays were used: • 1. Calpain I: • 20 nM calpain-I—isolated from human erythrocytes (Calbiochem #208713), 100 μM Suc-Leu-Tyr-AMC (Bachem #I-1355) as substrate in buffer with 62 mM imidazole, 0.3 mM CaCl2, 0.10% CHAPS, 0.05% BSA, 1 mM DTT at pH 7.3 and room temperature. • 2. Cathepsin B: • 0.25 nM cathepsin B—isolated from human liver (Calbiochem #219362), 100 μM Z-Phe-Arg-AMC (Bachem #I-1160) as substrate 50 mM MES, 2 mM EDTA, 0.05% Brij 35, 2.5 mM L-cysteine, pH 6.0, room temperature. • 3. Cathepsin K: • 3 nM cathepsin K—activated from recombinant human procathepsin K from E. coli (Calbiochem #342001), 10 μM Z-Gly-Pro-Arg-AMC (Biomol #P-142) as substrate in 50 mM MES, 2 mM EDTA, 0.05% Brij 35, 2.5 mM L-cysteine, pH 6.0, room temperature. • 4. Cathepsin L: • 1 nM cathepsin L—isolated from human liver (Calbiochem #219402), 2 μM Z-Phe-Arg-AMC (Bachem #I-1160) as substrate in 50 mM MES, 2 mM EDTA, 0.05% Brij 35, 2.5 mM L-cysteine, pH 6.0, room temperature. • 5. Cathepsin S: • 0.5 nM recombinant human cathepsin S from E. coli (Calbiochem #219343), 20 μM Z-Val-Val-Arg-AMC (Bachem #I-1540) as substrate in 50 mM MES, 2 mM EDTA, 0.05% Brij 35, 2.5 mM L-cysteine, pH 6.0, room temperature. • The results of the in vitro determination are indicated in Table 2. The following abbreviations are used in Table 2: • The “Calpain activity” column, ++ stands for a calpain Ki (Ki(calpain)) of ≦40 nM, + means: 40 nM<Ki(Calpain)≦100 nM, 0 means 100 nM<Ki(Calpain)≦1 μM, − means 1 μM<Ki(Calpain)≦10 μM, −− means Ki(Calpain)>10 μM. • The “Sel. cat. B” column indicates the Ki(cathepsin B)/Ki(calpain) ratio. In this connection, ++ means a Ki(cathepsin B)/Ki(calpain) ratio of ≧30 and + means≦10≦Ki(cathepsin B)/Ki(calpain)<30. • The “Sel. cat. K” column indicates the Ki(cathepsin K)/Ki(calpain) ratio. In this connection, ++ means a Ki(cathepsin K)/Ki(calpain) ratio of ≧30 and + means 10≦Ki(cathepsin K)/Ki(calpain)<30. • The “Sel. cat. L” column indicates the Ki(cathepsin L)/Ki(calpain) ratio. In this connection, ++ means a Ki(cathepsin L)/Ki(calpain) ratio of ≧50 and + means 30≦Ki(cathepsin L)/Ki(calpain)<50. • The “Sel. cat. S” column indicates the Ki(cathepsin S)/Ki(calpain) ratio. […]

[2] = molecular target: T2, cathepsin L isolated from human liver (Homo sapiens, UniProt P07711); assay: Cathepsin L enzyme inhibition, kinetic fluorescence assay; settings: selectivity ratio
T2 construct: cathepsin L—isolated from human liver; purchased Calbiochem 219402; host or cells: human liver (native tissue isolate)
T2 sequence (P07711 114-333): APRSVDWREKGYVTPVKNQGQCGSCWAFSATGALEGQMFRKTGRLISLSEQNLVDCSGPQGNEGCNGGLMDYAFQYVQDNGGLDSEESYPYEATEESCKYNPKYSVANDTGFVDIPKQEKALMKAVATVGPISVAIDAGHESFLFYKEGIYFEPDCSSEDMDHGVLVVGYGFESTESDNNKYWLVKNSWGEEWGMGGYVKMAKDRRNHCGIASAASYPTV
Procedure: (§1) The following solutions and buffers were employed: • HBS (for 40 ml): 800 μl 1M HEPES; 2.16 ml 100 mM KCl; 4.8 ml 1M NaCl; 3.59 ml 5% glucose; 60 μl 1M MgSO4; 400 μl 100 mM Na pyruvate, 28.19 ml water; pH 7.2-7.5. • lysis buffer (for 20 ml): 400 μl 1M Tris pH 8.2; 2.74 ml 1M NaCl; 520 μl 0.5M EDTA; 2 ml 10% triton X-100; 0.8 ml (=1:25) CompletePlus (1 tablet/2 ml H2O); 200 μl 100 mM Pefabloc; 13.34 ml water, pH 8.2. • TBST (10×) (for 1I): 100 mM Tris (12.1 g); 1.5M NaCl (87 g); 1% Tween 20 (10 g), adjusted to pH 8. I. Enzyme Inhibition In Vitro: • Testing for blockade of the corresponding enzymic activities was carried out by means of kinetic fluorescence assays (excitation 390 nm, emission 460 nm). • Apparent Ki values were calculated from the experimentally determined IC50 values by the Cheng-Prussoff relation assuming a reversible competitive enzyme inhibition. The Km values of the substrates used under the assay conditions indicated above were: 90 μM (Z-Phe-Arg-AMC, cathepsin B), 10 μM (Z-Gly-Pro-Arg-AMC, cathepsin K), 2 μM (Z-Phe-Arg-AMC, cathepsin L), and 30 μM (Z-Val-Val-Arg-AMC, cathepsin S). • The indicated Ki values are averages of the inhibition constants calculated on the basis of 2 to 4 independent dose-effect plots. • The following assays were used: • 1. Calpain I: • 20 nM calpain-I—isolated from human erythrocytes (Calbiochem #208713), 100 μM Suc-Leu-Tyr-AMC (Bachem #I-1355) as substrate in buffer with 62 mM imidazole, 0.3 mM CaCl2, 0.10% CHAPS, 0.05% BSA, 1 mM DTT at pH 7.3 and room temperature. • 2. Cathepsin B: • 0.25 nM cathepsin B—isolated from human liver (Calbiochem #219362), 100 μM Z-Phe-Arg-AMC (Bachem #I-1160) as substrate 50 mM MES, 2 mM EDTA, 0.05% Brij 35, 2.5 mM L-cysteine, pH 6.0, room temperature. • 3. Cathepsin K: • 3 nM cathepsin K—activated from recombinant human procathepsin K from E. coli (Calbiochem #342001), 10 μM Z-Gly-Pro-Arg-AMC (Biomol #P-142) as substrate in 50 mM MES, 2 mM EDTA, 0.05% Brij 35, 2.5 mM L-cysteine, pH 6.0, room temperature. • 4. […]

[3] = molecular target: T3, cathepsin K activated from recombinant human procathepsin K (Homo sapiens, UniProt P43235); assay: Cathepsin K enzyme inhibition, kinetic fluorescence assay; settings: selectivity ratio
T3 construct: purchased Calbiochem 342001; host or cells: E. coli
T3 sequence (P43235 115-329): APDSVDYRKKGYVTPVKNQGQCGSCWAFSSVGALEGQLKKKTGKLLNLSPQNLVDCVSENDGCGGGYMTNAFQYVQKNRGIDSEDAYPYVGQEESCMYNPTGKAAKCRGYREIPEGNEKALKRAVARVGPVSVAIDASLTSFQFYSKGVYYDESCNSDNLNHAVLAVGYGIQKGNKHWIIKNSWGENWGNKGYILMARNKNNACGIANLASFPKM
Procedure: as §1

[4] = molecular target: T4, recombinant human cathepsin S (Homo sapiens, UniProt P25774); assay: Cathepsin S enzyme inhibition, kinetic fluorescence assay; settings: selectivity ratio
T4 construct: purchased Calbiochem 219343; host or cells: E. coli
T4 sequence (P25774 115-331): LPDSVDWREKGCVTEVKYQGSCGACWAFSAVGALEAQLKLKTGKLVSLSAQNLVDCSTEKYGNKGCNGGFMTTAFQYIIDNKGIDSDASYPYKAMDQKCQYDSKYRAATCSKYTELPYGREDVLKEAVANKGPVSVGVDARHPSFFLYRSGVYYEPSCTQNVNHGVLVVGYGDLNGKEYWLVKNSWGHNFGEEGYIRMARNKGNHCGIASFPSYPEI
Procedure: as §1

[5] = molecular target: T5, cathepsin B isolated from human liver (Homo sapiens, UniProt P07858); assay: Cathepsin B enzyme inhibition, kinetic fluorescence assay; settings: selectivity ratio
T5 construct: cathepsin B—isolated from human liver; purchased Calbiochem 219362; host or cells: human liver (native tissue isolate)
Procedure: as §1

Ki [1] | Structure (SMILES) | Sel cat. L: Ki(cathepsin L)/Ki(calpain) ratio [2] | Sel cat. K: Ki(cathepsin K)/Ki(calpain) ratio [3] | Sel cat. S: Ki(cathepsin S)/Ki(calpain) ratio [4] | Sel cat. B: Ki(cathepsin B)/Ki(calpain) ratio [5]
> 10000 nM | NC(=O)C1(C(Cc2ccc(F)cc2)NC(=O)c2cccnc2-n2ccc(-c3ccc(Cl)cc3Cl)n2)OCCO1 (stereo not shown) [Compound I-1, N-[1-[2-(Aminocarbonyl)-1,3-dioxolan-2-yl]-2-(4-fluorophenyl)ethyl]-2-[3-(2,4-dichlorophenyl)-1H-pyrazol-1-yl]nicotinamide] | – | – | – | –
40 to 100 nM | NC(=O)C(=O)C(Cc1ccc(F)cc1)NC(=O)c1cccnc1-n1ccc(-c2ccc(Cl)cc2Cl)n1 (stereo not shown) [II-1, N-[3-amino-1-(4-fluorobenzyl)-2,3-dioxopropyl]-2-[3-(2,4-dichlorophenyl)-1H-pyrazol-1-yl]nicotinamide] | ++ (++ means a Ki(cathepsin L)/Ki(calpain) ratio of ≧50) | ++ (++ means a Ki(cathepsin K)/Ki(calpain) ratio of ≧30) | ++ (++ means a Ki(cathepsin S)/Ki(calpain) ratio of ≧100) | ++ (++ means a Ki(cathepsin B)/Ki(calpain) ratio of ≧30)
40 to 100 nM | NC(=O)C(=O)C(Cc1ccccc1)NC(=O)c1cccnc1-n1ccc(-c2ccc(F)cc2)n1 (stereo not shown) [II-3, N-(3-amino-1-benzyl-2,3-dioxopropyl)-2-[3-(4-fluorophenyl)-1H-pyrazol-1-yl]nicotinamide] | ++ (++ means a Ki(cathepsin L)/Ki(calpain) ratio of ≧50) | + (+ means 10≦Ki(cathepsin K)/Ki(calpain)<30) | ++ (++ means a Ki(cathepsin S)/Ki(calpain) ratio of ≧100) | + (+ means≦10≦Ki(cathepsin B)/Ki(calpain)<30)
≤ 40 nM | NC(=O)C(=O)C(Cc1ccccc1)NC(=O)c1cccnc1-n1ccc(-c2cccc(C(F)(F)F)c2)n1 (stereo not shown) [Compound II-2, N-(3-Amino-1-benzyl-2,3-dioxopropyl)-2-{3-[3-(trifluoromethyl)phenyl]-1H-pyrazol-1-yl}nicotinamide] | ++ (++ means a Ki(cathepsin L)/Ki(calpain) ratio of ≧50) | ++ (++ means a Ki(cathepsin K)/Ki(calpain) ratio of ≧30) | ++ (++ means a Ki(cathepsin S)/Ki(calpain) ratio of ≧100) | + (+ means≦10≦Ki(cathepsin B)/Ki(calpain)<30)
